# In US7439052B2, “Method of making modified immunodeficiency virus particles” (Lipid Sciences, priority 2000, dated 2008):
# Key:
# SIVmac239 [1] = assay: Absolute CD4 counts in SIV-infected macaques; assay type: in vivo; details: from pre-PMPA levels of <500/μl
# Excerpt: (§1) A cohort of highly viremic macaques chronically infected for over two years with SIVmac239 was used as a chronic and pathogenic model of immunodeficiency virus infection. The animals were identified as RDg-7, RJo-6, RMi-7 and RSp-6. To test the effect on these animals of administration of a delipidated immunodeficiency virus composition comprising modified, partially delipidated immunodeficiency viral particles, also referred to as therapeutic vaccine compositions or therapeutic vaccines, autologous immunodeficiency virus was delipidated and administered to the experimental animals following a 30 day antiretroviral therapy (ART) with an antiviral drug PMPA. […] The animals were then subjected to lymph node targeted immunization at monthly intervals with 1, 1 and 10 μg of autologous delipidated SIV virus composition, obtained substantially as described elsewhere herein. Four weeks after the last boost, ART was discontinued and the animals were monitored for virological and immunological parameters.
# SIVmac239 [2] = assay: Plasma viral loads in macaques chronically infected with SIVmac239; assay type: in vivo
# Excerpt: as §1
# The virological and immunological parameters were determined substantially as follows. Viral loads, schematically shown in FIGS. 13-18, were analyzed by SIV enzyme immunoassay (EIA) substantially as described elsewhere herein. […] Plates were read at a 450 nm wavelength using an ELISA reader. […]
structure (smiles),measurement,setting,value
C[C@H](Cn1cnc2c(N)ncnc21)OCP(=O)(O)O [PMPA],absolute CD4 counts,SIVmac239 [1],increases in absolute CD4 counts
same,viral loads after 30 day antiretroviral therapy,SIVmac239 [2]; macaques chronically infected with SIVmac239,less than 80 copies/ml of viral RNA
same,plasma viral loads under treatment (below the limits of detection),SIVmac239 [2]; reduced from 10^4-10^6,< 10 viral RNA copies/ml
